SMILES strings stand for the structures.

This experiment deals with T1, Amino acid transporter (Rattus norvegicus) (UniProt Q9Z1J7).
T1 sequence (whole entry): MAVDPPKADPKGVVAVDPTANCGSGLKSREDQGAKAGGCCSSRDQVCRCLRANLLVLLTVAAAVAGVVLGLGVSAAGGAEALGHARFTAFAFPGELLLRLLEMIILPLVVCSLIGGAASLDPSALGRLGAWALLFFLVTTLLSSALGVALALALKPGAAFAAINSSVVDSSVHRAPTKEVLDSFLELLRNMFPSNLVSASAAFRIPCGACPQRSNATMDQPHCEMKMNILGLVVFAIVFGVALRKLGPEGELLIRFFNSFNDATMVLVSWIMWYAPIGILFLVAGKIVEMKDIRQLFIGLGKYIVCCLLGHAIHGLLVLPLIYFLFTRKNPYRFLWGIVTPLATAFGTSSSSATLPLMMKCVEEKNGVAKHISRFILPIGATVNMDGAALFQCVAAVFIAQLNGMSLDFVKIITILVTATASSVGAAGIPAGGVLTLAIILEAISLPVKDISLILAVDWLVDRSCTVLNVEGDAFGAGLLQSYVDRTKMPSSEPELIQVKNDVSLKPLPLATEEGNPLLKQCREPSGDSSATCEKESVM
The experiment in a line: Inhibition of ASCT2 mediated [3H]-D-serine uptake in rat hippocampal astrocytes at 1 mM after 5 mins by beta counting analysis. In kind it is cell-based.
Broadly, the inhibition is the drop in the measured response relative to a control, in per cent. For `CCC[C@H](N)C(=O)O`, the inhibition was over 25%.
As for `N[C@H](C(=O)O)c1ccsc1`, the inhibition is over 25%.
The molecule `O=C(O)C1C[C@@H](Cc2csc3ccccc23)CN1` (single isomer, unassigned) came in with an inhibition of over 25%.
The value for `O=C(O)C1C[C@@H](Cc2cccc(C(F)(F)F)c2)CN1` (single isomer, unassigned) was over 25%.
The value for `N[C@@H](CCC(=O)Nc1cccc2ccccc12)C(=O)O` was over 25%; that for `COC[C@H](N)C(=O)O` was over 25%.
On to `Cc1ccccc1C[C@H]1CNC(C(=O)O)C1` (single isomer, unassigned), for which the inhibition is over 25%.
The value for `Nc1c(O)cccc1C(=O)CC(N)C(=O)O` (stereo not drawn) was over 25%; that for `CNC(C(=O)O)c1ccc(OC)cc1` (stereo not drawn) was over 25%; that for `N[C@@H](CCCc1ccccc1)C(=O)O` was over 25%.
The value for `N[C@@H](CCc1ccccc1)C(=O)O` was over 25%.
Turning to `C[C@@H](N)C(=O)O`, the inhibition is over 25%.
The value for `N[C@H](CCO)C(=O)O` was over 25%.
The value for `O=C(O)C(c1ccc(F)cc1)N1CCOCC1` (stereo not drawn) was over 25%; that for `N[C@@H](CCC(=O)NO)C(=O)O` was over 25%; that for `NC(C(=O)O)c1cccc([N+](=O)[O-])c1` (stereo not drawn) was over 25%.
The value for `N#Cc1ccccc1C[C@H]1CNC(C(=O)O)C1` (single isomer, unassigned) was over 25%; that for `O=C(O)C1C[C@@H](Cc2cccc(Br)c2)CN1` (single isomer, unassigned) was over 25%; that for `N[C@@H](Cc1cccs1)C(=O)O` was over 25%.
`N[C@@H](Cc1c[nH]c2ccc(O)cc12)C(=O)O` yielded an inhibition of over 25%.
The value for `NC(C(=O)O)c1ccc([N+](=O)[O-])cc1` (stereo not drawn) was over 25%.
The value for `CCOC(=O)CC[C@H](N)C(=O)O` was over 25%.
The value for `O=C(O)[C@@H]1C[C@@H](Cc2ccc3ccccc3c2)CN1` was over 25%; that for `Nc1ccccc1C(=O)C[C@H](N)C(=O)O` was over 25%; that for `O=C(O)[C@@H]1C[C@H](Cc2cccc(Cl)c2)CN1` was over 25%.
As for `N[C@@H](CS)C(=O)O`, the inhibition is over 25%.
Take `NC(C(=O)O)c1ccccc1Cl` (stereo not drawn): the inhibition was over 25%.
The value for `O=C(O)C1C[C@@H](Cc2ccc(Br)cc2)CN1` (single isomer, unassigned) was over 25%.
The value for `O=C(O)C1C[C@@H](Cc2cccc3ccccc23)CN1` (single isomer, unassigned) was over 25%; that for `NC1(C(=O)O)CCC1` was over 25%; that for `NC(Cc1c[nH]c2cccc(F)c12)C(=O)O` (stereo not drawn) was over 25%.
The value for `N[C@@H](Cc1ccc2ccccc2c1)C(=O)O` was over 25%; that for `N[C@H](C(=O)O)c1ccc(C(F)(F)F)cc1` was over 25%; that for `O=C(O)[C@@H]1C[C@@H](Cc2ccco2)CN1` was over 25%.
As for `N[C@H]1CCSC1=O`, the inhibition is over 25%.
The value for `NC(C(=O)O)C(O)c1cccnc1` (racemic) was over 25%; that for `N#Cc1cccc(C[C@H]2CNC(C(=O)O)C2)c1` (single isomer, unassigned) was over 25%.
In turn, `O=C(O)C1Cc2c([nH]c3ccccc23)CN1` (stereo not drawn) displayed an inhibition of over 25%.
The value for `CC(C)(C)c1ccc(C[C@H]2CNC(C(=O)O)C2)cc1` (single isomer, unassigned) was over 25%; that for `NC(CC(=O)Nc1ccccc1)C(=O)O` (stereo not drawn) was over 25%.
The value for `NC(CCC(=O)Nc1ccccc1)C(=O)O` (stereo not drawn) was over 25%; that for `O=C(O)C1C[C@@H](Cc2ccccc2Br)CN1` (single isomer, unassigned) was over 25%; that for `C#CC[C@H]1CN[C@H](C(=O)O)C1` was over 25%.
The value for `NC(=O)C[C@@H](N)C(=O)O` was over 25%; that for `N[C@@H](Cc1ccc(O)c(O)c1)C(=O)O` was over 25%.
Consider `N[C@H](C(=O)O)C1CCCCC1`, for which the inhibition is over 25%.
The value for `C=CC[C@H]1CNC(C(=O)O)C1` (single isomer, unassigned) was over 25%; that for `N[C@H](C(=O)O)c1cccc(O)c1` was over 25%.
With `O=C(O)[C@@H]1C[C@@H](c2ccccc2)CN1`, the inhibition is over 25%.
The value for `N[C@H]1CCOC1=O` was over 25%; that for `C[C@@H](O)[C@H](N)C(=O)O` was over 25%.
The value for `O=C(O)C1C[C@@H](Cc2cccc(F)c2)CN1` (single isomer, unassigned) was over 25%; that for `N[C@@H](CO)C(=O)Nc1ccc2ccccc2c1` was over 25%.
The value for `O=C(O)[C@@H]1Cc2ccccc2CN1` was over 25%; that for `NC(C(=O)O)c1cc(O)ccc1Cl` (stereo not drawn) was over 25%; that for `C[C@H](O)[C@H](N)C(=O)O` was over 25%.
On to `O=C(O)[C@@H]1C[C@@H](Cc2cccc(Cl)c2)CN1`, for which the inhibition was over 25%.
The value for `N[C@@H](Cc1c[nH]c2ccc(F)cc12)C(=O)O` was over 25%; that for `O=C(O)C1NCc2ccccc21` (stereo not drawn) was over 25%; that for `N[C@@H](CC(=O)OCc1ccccc1)C(=O)O` was over 25%.
The value for `N[C@@H](Cc1csc2ccccc12)C(=O)O` was over 25%; that for `N[C@@H](Cc1ccc(O)cc1)C(=O)O` was over 25%.
The value for `Cc1ccc(C(N)C(=O)O)cc1Cl` (stereo not drawn) was over 25%; that for `O=C(O)[C@H]1NCC[C@@H]1c1ccccc1` was over 25%; that for `NCC(=O)O` was over 25%.
In turn, `N[C@@H](CCC(=O)Nc1ccc2ccccc2c1)C(=O)O` returned an inhibition of over 25%.
The value for `O=C(O)[C@@H]1C[C@@H](Cc2ccccc2C(F)(F)F)CN1` was over 25%; that for `Cc1ccc(SC[C@H](N)C(=O)O)cc1` was over 25%; that for `Cc1ccc(C[C@H]2CNC(C(=O)O)C2)cc1` (single isomer, unassigned) was over 25%.
The value for `O=C(O)[C@@H]1C[C@@H](C2CCCCC2)CN1` was over 25%.
The value for `NC1(C(=O)O)CC1` was over 25%.
For `O=C(O)C1C[C@@H](Cc2ccc(Cl)c(Cl)c2)CN1` (single isomer, unassigned), the inhibition was over 25%.
The value for `NC(C(=O)O)c1ccc(C(=O)O)c(O)c1` (stereo not drawn) was over 25%; that for `O=C(O)[C@@H]1CN1` was over 25%; that for `O=C(O)[C@@H]1NCC[C@H]1Cc1ccc(F)cc1` was over 25%.
For `NC(C(=O)O)C1CC2C=CC1C2` (stereo not drawn), the inhibition was over 25%.
The value for `CC(=O)OC[C@H](N)C(=O)O` was over 25%; that for `NC(C(=O)O)c1cccc(F)c1` (stereo not drawn) was over 25%; that for `NC(C(=O)O)c1nnn[nH]1` (stereo not drawn) was over 25%.
The value for `CC(C)(S)[C@H](N)C(=O)O` was over 25%; that for `NC(C(=O)O)c1ccc(O)c(O)c1` (stereo not drawn) was over 25%.
The value for `Nc1ccccc1C(=O)C[C@@H](N)C(=O)O` was over 25%.
The molecule `C[C@H](O)[C@@H](N)C(=O)O` came in with an inhibition of over 25%.
In turn, `O=C(O)c1cc2sccc2[nH]1` had an inhibition of over 25%.
For `O=C(O)[C@H]1NCCC1c1ccccc1` (stereo partly drawn), the inhibition was over 25%.
In the case of `O=C(O)[C@@H]1C=CCN1`, the inhibition was over 25%.
The value for `CSCC[C@H](N)C(=O)O` was over 25%; that for `O=C(O)/C(=C/c1c(C(=O)O)[nH]c2cc(Cl)cc(Cl)c12)c1ccccc1` was over 25%; that for `C[C@H](N)C(=O)O` was over 25%.
For the molecule `NC(C(=O)O)C1C2CC3CC(C2)CC1C3` (stereo not drawn), the inhibition was over 25%.
In the case of `C=CCC(N)C(=O)O` (stereo not drawn), the inhibition is over 25%.
The value for `NC(C(=O)O)c1cc(O)cc(O)c1` (stereo not drawn) was over 25%; that for `N[C@H](C(=O)O)c1ccco1` was over 25%; that for `COC(=O)[C@@H](N)c1ccccc1` was over 25%.
The molecule `NC(C(=O)O)c1ccc(F)c(Cl)c1` (stereo not drawn) had an inhibition of over 25%.
The value for `N[C@@H](CCS)C(=O)O` was over 25%; that for `O=C(O)C1C[C@@H](Cc2ccncc2)CN1` (single isomer, unassigned) was over 25%; that for `NC(C(=O)O)c1ccccc1O` (stereo not drawn) was over 25%.
The value for `O=C(O)[C@H](CO)NCc1ccccc1` was over 25%; that for `O=C(O)[C@@H]1C[C@@H](Cc2ccc(C(F)(F)F)cc2)CN1` was over 25%; that for `O=C(O)C1C[C@@H](Cc2ccc(Cl)cc2Cl)CN1` (single isomer, unassigned) was over 25%.
The value for `O=C(O)[C@@H]1C[C@H](Oc2cccc(Cl)c2)CN1` was over 25%; that for `N#Cc1ccc(C[C@H]2CNC(C(=O)O)C2)cc1` (single isomer, unassigned) was over 25%; that for `NC(C(=O)O)c1ccc2c(c1)OCCO2` (stereo not drawn) was over 25%.
In turn, `C#CCC[C@H](N)C(=O)O` displayed an inhibition of over 25%.
The value for `N[C@H](C(=O)O)c1ccc(O)c(C(=O)O)c1` was over 25%.
The value for `CCSC[C@H](N)C(=O)O` was over 25%; that for `O=C(Nc1cccc2ccccc12)[C@@H]1C[C@@H](O)CN1` was over 25%.
